Read-outs that look alike come from different tables or passages of the source.
Key:
C. albicans [1] = test: MIC, visible-light-activated MMs and conventional antifungals, C. albicans; format: cell-based, Candida albicans (ATCC 18804); details: Candida albicans, read-out: MIC of antifungal agent
Experimental: C. albicans cell suspensions were incubated with increasing concentrations of MMs and irradiated with 405-nm light at 292 mW cm^−2 for 5 min (87.6 J cm^−2). The minimum inhibitory concentration (MIC) was defined as the MM concentration resulting in no visible fungal growth after irradiation with 87.6 J cm^−2 of 405-nm light.
(§1) Cell suspensions for susceptibility testing (MMs and conventional antifungals) were prepared per the Clinical & Laboratory Standards Institute (CLSI) guidelines (CLSI, 2017; CLSI, 2008). Before testing, yeasts (C. albicans and S. cerevisiae) were sub-cultured in Sabouraud Dextrose Agar-Emmons Modification (SDAE) plates and grown for 24 h at 30 °C. Five independent colonies from 24-h-old plates were collected and diluted to ~10^4 colony forming units (CFU) per mL in sterile saline (CLSI, 2017). Molds (A. fumigatus and the dermatophytes T. rubrum and M. gypseum) were sub-cultured on SDAE medium and incubated for 7 days at 28 °C. Conidia were recovered by covering the plates with sterile distilled water and scraping the colonies. The suspensions were filtered (8-μm pore size) and diluted in saline to ~10^4 CFU mL^−1 (Santos and Hamdan, 2005).
(§2) After a 30-min incubation in the dark, cell suspensions were transferred to small, sterilized glass beakers, which were then placed in a water bath. Each sample was irradiated with 405-nm light at 292 mW cm^−2 for 5 min, corresponding to a light dose of 87.6 J cm^−2, determined using an S415C thermal power sensor (Thorlabs, Newton, MA, USA). During irradiation, the cell suspensions were agitated with a small metal stirrer. A thermocouple probe (model SC-TT-K-30-36-PP; Omega Engineering, Inc., Stanford, CT, USA) was used to monitor the temperature during irradiation. Irradiated cell suspensions were inoculated in 3-(N-morpholino) propanesulfonic acid (MOPS)-buffered Roswell Park Memorial Institute Medium (RPMI) 1640 (pH 7.0). Tubes were incubated at 30 ° C for 48 h (yeasts) and 28 ° C for 7 days (molds). The antifungal or MM concentration resulting in no visible growth was defined as the minimum inhibitory concentration (MIC) (CLSI, 2017; CLSI, 2008). Similarly prepared cell suspensions were used to determine the MIC of conventional antifungals.

S. cerevisiae = test: MIC, MMs and antifungals, S. cerevisiae; format: cell-based, Saccharomyces cerevisiae (ATCC 13007); details: Saccharomyces cerevisiae, broth microdilution, read-out: MIC of antifungal agent
Experimental: as §1, §2

E. coli [2] = test: Effect of ROS scavengers on MM 1-induced killing of E. coli; format: cell-based, Escherichia coli; details: MM 1 2×MIC, NAC 1 mM, TU 100 mM
Excerpt: All results are shown as the mean of at least 3 biological replicas±standard error of the mean.

C. albicans [3] = test: Killing of C. albicans by MM 1 in de-energized, inhibited, uncoupled cells or with scavengers; format: cell-based, Candida albicans; details: for effect of scavenger on MM-induced killing: MM 1 2×MIC
Experimental: FIG. 8: Survival curves of de-energized versus exponential, fully energized cells of C. albicans treated with visible-light-activated MM 1 (2×MIC). Energy depletion of C. albicans was achieved by resuspending cells in de-energization buffer (1 μM antimycin A, 5 mM 2-deoxy-D-glucose, 50 mM HEPES buffer, pH 7.0) for 3 h, as described for the determination of efflux pump activity in Example 1. Survival curves were generated according to the procedure described in Example 1 for time-kill assays. The dashed line indicates the detection limit of the method. The results are expressed as the average of at least three independent replicates±the standard error of the mean.
FIG. 9: Effect of pre-treatment with drugs targeting different individual components of the electron transport chain (see table inset) on the killing of C. albicans by light-activated MM 1 (2×MIC). Survival curves were generated according to the procedure described in Example 1 for time-kill assays. The dashed line indicates the detection limit of the method. The results are expressed as the average of at least three independent replicates±the standard error of the mean.
FIG. 10: Effect of pre-treatment with the uncoupling agents carbonyl [COMPOUND LEFT OUT] 4-(trifluoromethoxy)phenylhydrazone (FCCP) and carbonyl [COMPOUND LEFT OUT] 3-chlorophenylhydrazone (CCCP) on the killing of C. albicans by light-activated MM 1 (2×MIC). Survival curves were generated according to the procedure described in Example 1 for time-kill assays. The dashed line indicates the detection limit of the method. The results are expressed as the average of at least three independent replicates #the standard error of the mean.
Survival curves were generated according to the procedure described in Example 1 for time-kill assays. The dashed line indicates the detection limit of the method. The results are expressed as the average of at least three independent replicates±the standard error of the mean.
FIGS. 12A-12C show the effect of growth in the presence of different reactive oxygen species (ROS) scavengers and the iron scavenger 2,2′-dipyridyl (DP) on MM 1-induced killing of C. albicans. […] The results are expressed as the average of at least three independent replicates±the standard error of the mean. (FIG. 12B) Growth curves of C. albicans in the presence and absence of the iron scavenger DP, determined by monitoring the absorbance at 630 nm over time in a microplate reader. […] (FIG. 12C) Time profiles of mitochondrial ROS levels in C. albicans grown with and without DP after treatment with visible-light-activated MM 1 (2×MIC), detected with the MitoROS™ 580 fluorescent probe, according to the experimental procedure described in Example 1. […]

E. coli [4] = test: MIC, E. coli; format: cell-based, Escherichia coli BW25113; details: Escherichia coli, read-out: MIC of MM
A. baumannii [5] = test: MIC, A. baumannii; format: cell-based, Acinetobacter baumannii; details: Acinetobacter baumannii, read-out: MIC of MM
Experimental: (§3) The appropriate volume of an MM stock at 8 mM necessary to achieve a concentration ranging from 0.3125 to 40 μM was pipetted into a 2 mL microcentrifuge tube to which 1 mL of cell suspension prepared as previously described was added. Corresponding negative controls (DMSO only) were prepared in the same way. The mixture was gently mixed by pipetting and incubated in the dark at 30 or 37 ° C, depending on the strain, for 30 min with agitation (220 rpm). Afterward, MM- or DMSO-treated cells were dispensed in one well of a 24-well plate positioned in the center of the light beam (405 nm LED Light, Prizmatix, UHP—F-5-405) placed at the appropriate distance necessary to achieve the desired light intensity of 304 mW cm-2, 146 mW cm2 or 87 mW cm2, as measured with a handheld digital power meter console coupled to an S415C thermal power sensor head (Thorlabs, Newton, MA, USA). The temperature during irradiation was monitored using a thermocouple probe (Model SC-TT-K-30-36-PP; Omega Engineering, Inc., Stanford, CT, USA). Samples were agitated during irradiation. Dark controls were prepared as previously described except that no irradiation was provided.
(§4) For MIC determination, samples treated with a range of concentrations of the different MM, as described above and were irradiated one at a time for 5 min at 146 mW cm^−2 (43.8 J cm^−2), after which irradiated aliquots were collected and inoculated into 1 mL MHB in a 2 mL microcentrifuge tube. Samples were incubated overnight at 30 or 37 ° C, depending on the strain, without agitation. Corresponding non-irradiated samples and negative controls (without bacteria) were also included. The following day, cultures were inspected for growth and the MIC was identified. The experimental procedure used to determine the MIC of visible light-activated MMs is schematically depicted in FIG. 26.

P. aeruginosa [6] = test: MIC, P. aeruginosa; format: cell-based, Pseudomonas aeruginosa; details: Pseudomonas aeruginosa, read-out: MIC of MM
Experimental: as §3, §4

S. aureus [7] = test: MIC, S. aureus; format: cell-based, Staphylococcus aureus; details: Staphylococcus aureus, read-out: MIC of MM
Experimental: as §3, §4

E. coli [8] = test: Time-kill / light-dose experiments, E. coli; format: cell-based, Escherichia coli
Experimental: (§5) Serial dilutions of irradiated cell suspensions were prepared in PBS. A volume of 10 AL of the appropriate serial dilutions was spot-plated onto LB agar plates. Following overnight incubation at 30 or 37 ° C, depending on the strain, bacterial viability was assessed as colony forming units (CFU) per mL. Results were expressed as log (N/NO) whereby N is the CFU mL^−1 at each irradiation time point and NO is the initial CFU mL^−1 of the corresponding sample. Only dilutions that yielded 10-100 colonies were counted.

A. baumannii [9] = test: Time-kill / light-dose experiments, A. baumannii; format: cell-based, Acinetobacter baumannii; details: 2×MIC, 146 mW cm^−2 405 nm
Experimental: as §5

P. aeruginosa [10] = test: Time-kill / light-dose experiments, P. aeruginosa; format: cell-based, Pseudomonas aeruginosa; details: 2×MIC, 146 mW cm^−2 405 nm
Experimental: as §5

S. aureus [11] = test: Time-kill / light-dose experiments, S. aureus; format: cell-based, Staphylococcus aureus; details: 2×MIC, 146 mW cm^−2 405 nm
Experimental: as §5

[12] = tested on: persister cells of E. coli; test: Persister eradication, E. coli; format: cell-based, Escherichia coli; details: 1×MIC, 405 nm
Experimental: (§6) Persister cells of E. coli were prepared by adding ampicillin (100 μg mL^−1) to exponential-phase cells (OD600 of ≈0.8) followed by continuous agitation for another 3 b, as previously described (Keren et al., 2004). In the case of S. aureus, almost all stationary-phase are considered to be persistent (Keren et al., 2004). S. aureus cells were grown at 37 ° C and 220 rpm in LB broth to an OD600 of 0.3. Cells were then diluted 1:1000 in 25 mL LB and grown for 16 h at 37 ° C and 220 rpm in 250 mL flasks. […] At specified time points (0, 1, 2, 3, 4 and 5, 10 and 15 min), 50-μL aliquots were removed, serially diluted and spot-plated onto LB agar plates to determine colony-forming units per mL (CFU mL^−1). Only dilutions that yielded 10-100 colonies were counted. Results were expressed as log (N/NO) whereby N is the CFU mL^−1 at each irradiation time point and NO is the initial CFU mL^−1 of the corresponding sample. […].

[13] = tested on: persister cells of S. aureus; test: Persister eradication, S. aureus; format: cell-based, Staphylococcus aureus; details: 1×MIC, 405 nm
Experimental: as §6

CC[C@H](C)C[C@H](C)CCCCCCCCC(=O)N[C@H]1C[C@@H](O)[C@@H](NCCN)NC(=O)[C@@H]2[C@@H](O)CCN2C(=O)[C@H]([C@H](O)CCN)NC(=O)[C@H]([C@H](O)[C@@H](O)c2ccc(O)cc2)NC(=O)[C@@H]2C[C@@H](O)CN2C(=O)[C@H]([C@@H](C)O)NC1=O [Caspofungin (CAS), Caspofungin]
MIC (C. albicans [1]): 0.25 µg/mL | MIC (S. cerevisiae): 0.5 µg/mL

CC(=O)N[C@@H](CS)C(=O)O [N-acetyl-L-cysteine]
protection against MM-induced killing by ROS scavenger (E. coli [2]): does not protect against MM-induced killing in E. coli

CC1(C)CC(NC(=O)C[P+](c2ccccc2)(c2ccccc2)c2ccccc2)CC(C)(C)N1[O] [MitoTEMPO]
effect of scavenger on MM-induced ROS generation (C. albicans [3]): reduced ROS generation | effect of scavenger on MM-induced killing (C. albicans [3]): did not affect survival following MM treatment

NC(N)=S [thiourea]
protection against MM-induced killing by ROS scavenger (E. coli [2]): does not protect against MM-induced killing in E. coli

Br.COc1cc2c(c3ccccc13)/C(=C1\c3ccccc3Sc3ccc(C#CCCCC[P+](c4ccccc4)(c4ccccc4)c4ccccc4)cc31)[C@H](C)C2 (stereo in doubt) [MM 4, (6-(9-(5-methoxy-2-methyl-2,3-dihydro-1H-cyclopenta[a]naphthalen-1-ylidene)-9H-thioxanthen-2-yl)hex-5-yn-1-yl)triphenylphosphonium bromide]
MIC (E. coli [4]; E. coli BW25113, 405 nm light 43.8 J cm^−2): 0.625 µM | MIC (E. coli [4]; E. coli, Table 9, 405 nm light 43.8 J cm^−2): 1 µM | MIC (A. baumannii [5]): 2.5 µM | MIC (P. aeruginosa [6]): 0.625 µM | MIC (S. aureus [7]): 0.078 µM | time to reduce cell number to limit of detection (E. coli [8]; E. coli, 2×MIC, 146 mW cm^−2 405 nm): 4 min | bacterial toxicity in the absence of light (E. coli [8]; FIG. 31, different bacterial strains, no light): Some toxicity of the MM itself (in the absence of light) | time to reduce cell number to limit of detection (A. baumannii [9]): 3 min | time to reduce cell number to limit of detection (P. aeruginosa [10]): 3 min | time to complete elimination (S. aureus [11]): 2 min | time to reduce persister cells to limit of detection [12]: 5 min | time to reduce persister cells to limit of detection [13]: 3 min

c1ccc(-c2ccccn2)nc1 [2,2′-dipyridyl]
effect of scavenger on MM-induced ROS generation (C. albicans [3]): did not impact MM-induced ROS generation | effect of scavenger on MM-induced killing (C. albicans [3]): mitigation of MM-induced killing
